The values that follow come from patent US9863937B2, “Fluorescent molecular rotors” (Agency for Science, Technology and Research, priority 2012, dated 2018).

Usually Kd stands for the constant that tells how readily two partners part at equilibrium.

“Also recorded” adds a separate entry of the source.

For assay [1], the system named is p53 binding sequence duplex DNA. The experiment in a line: Rotor fluorescence with p53 binding sequence duplex DNA (intercalation). The settings on record: FIG. 7. The protocol:
For the first set with DNA only, 1×PBS buffer and p53 6× binding buffer were first added to the wells. Subsequently, rotor was added. Lastly, DNA was added. The combined solutions were mixed in each well and allowed to incubate in the dark at room temperature for, half an hour before data on fluorescence intensity was gathered.
(§1) Measurements were taken using Greiner 384 black flat-clear-bottom for 18 uL mixtures, Corning 96 flat-black half-area for 80 uL and 100 uL mixtures, and Tecan Infinite M-1000 Spectrophotometer.

Assay [2] concerns the target streptavidin (Streptomyces avidinii, UniProt P22629). As to the kind of experiment: Fluorescence of rotor-biotin conjugate on addition of streptavidin. Format: binding. The protocol:
FIG. 4a depicts the emission spectra of a CCVJ molecular rotor bound to biotin with Streptavidin. […] 40 μM of rotor-biotin conjugate was incubated for 15 min with 50 μg of streptavidin. Fluorescence emission spectrum was measured using an excitation wavelength (λex) of 433 nm.

Assay [3] concerns plasmid DNA. The experiment in a line: Rotor fluorescence with plasmid DNA. Format: binding. The conditions noted are these: 100 uM rotor, 5 ug plasmid DNA. On the procedure:
100 uM of Sybr green, Pyrene or CCVJ rotors were each added to either 5 ug plasmid DNA, 5 ug DNA with 500 mM NaOH, or PBS buffer only. Resulting fluorescence for each reaction mixture were then compared across the respective filters (Sybr 497/520, Pyrene 376/530, Julolidine 433/505).

The target of assay [4] is p53 protein binding to DNA (Homo sapiens, UniProt P04637). The experiment in a line: Fluorescence change of DNA-bound rotor on addition of p53 protein. The protocol: For the third set with DNA and p53, 1×PBS buffer and p53 6× binding buffer were first added to the wells. Subsequently, rotor was added and DNA was added. The combined solutions were mixed in each well and allowed to incubate in the dark at room temperature for half an hour before p53 was added. The combined solutions were then allowed to incubate in the dark at room temperature for another half an hour before data on fluorescence intensity was gathered.
p53 protein binding to DNA, sequence (P04637 whole entry): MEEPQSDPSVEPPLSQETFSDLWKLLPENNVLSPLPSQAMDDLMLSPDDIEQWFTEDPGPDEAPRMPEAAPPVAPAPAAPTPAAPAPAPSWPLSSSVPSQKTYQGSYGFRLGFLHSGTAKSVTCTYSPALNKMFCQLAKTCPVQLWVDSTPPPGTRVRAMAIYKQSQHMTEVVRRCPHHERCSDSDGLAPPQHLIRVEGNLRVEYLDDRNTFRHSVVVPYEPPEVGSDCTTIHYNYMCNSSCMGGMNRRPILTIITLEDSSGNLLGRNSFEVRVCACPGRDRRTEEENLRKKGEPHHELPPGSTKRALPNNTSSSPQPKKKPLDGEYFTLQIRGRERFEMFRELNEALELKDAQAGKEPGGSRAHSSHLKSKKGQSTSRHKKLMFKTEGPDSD
6× binding buffer consists: 150 mM sodium phosphate buffer, 600 uM KCl, 24 mM DTT.
as §1

The target of assay [5] is MDM2 (Homo sapiens, UniProt Q00987). The settings on record: unconjugated peptide, Table 9; ITC; read-out: Previously reported Kd value; cited from earlier work.
MDM2, sequence (Q00987 whole entry): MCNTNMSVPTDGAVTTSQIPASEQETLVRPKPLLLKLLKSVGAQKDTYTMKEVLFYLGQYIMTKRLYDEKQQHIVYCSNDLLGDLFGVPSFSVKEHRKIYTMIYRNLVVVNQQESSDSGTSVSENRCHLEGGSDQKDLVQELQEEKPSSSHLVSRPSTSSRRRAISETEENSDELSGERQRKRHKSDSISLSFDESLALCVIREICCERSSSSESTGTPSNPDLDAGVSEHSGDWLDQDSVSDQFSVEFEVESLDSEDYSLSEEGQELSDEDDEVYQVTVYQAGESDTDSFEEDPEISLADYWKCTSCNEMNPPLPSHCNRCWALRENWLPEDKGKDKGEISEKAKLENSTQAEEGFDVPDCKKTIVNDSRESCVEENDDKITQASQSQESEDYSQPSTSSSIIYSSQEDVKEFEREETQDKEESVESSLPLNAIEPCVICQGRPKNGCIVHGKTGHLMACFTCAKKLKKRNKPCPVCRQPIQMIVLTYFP

streptavidin, sequence (P22629 25-183, species assumed): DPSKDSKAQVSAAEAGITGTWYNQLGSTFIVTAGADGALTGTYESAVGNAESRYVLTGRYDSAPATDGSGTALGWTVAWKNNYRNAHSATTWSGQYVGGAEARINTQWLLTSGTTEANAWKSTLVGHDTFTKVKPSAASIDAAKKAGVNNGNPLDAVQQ

Consider `C[n+]1ccc(/C=C/c2ccc(-n3c4ccc(/C=C/c5cc[n+](C)cc5)cc4c4cc(/C=C/c5cc[n+](C)cc5)ccc43)cc2)cc1` [carbazole-based (3-arm) rotor, 4,4′-((1E,1′E)-(9-(4-((E)-2-(1-methylpyridin-1-ium-4-yl)vinyl)phenyl)-9H-carbazole-3,6-diyl)bis(ethene-2,1-diyl))bis(1-methylpyridin-1-ium)], for which the “Rotor:DNA ratio at saturation of fluorescence intensity” value (from here on “Rotor:DNA ratio at saturation”) in assay [1] is given as 15 × rotor.
In the case of `N#C/C(=C\c1ccc2ccc3cccc4ccc1c2c34)C(=O)O` [pyrene-based molecular rotor], the “Fluorescence change on binding to streptavidin” value in assay [2] (FIG. 4b) was “fluorescence increase”.
With `N#C/C(=C\c1cc2c3c(c1)CCCN3CCC2)C(=O)O` [CCVJ, 9-(2-carboxy-2-cyanovinyl) julolidine], the “Fluorescence signal with plasmid DNA” value in assay [3] is “weak signal”.
Consider `CN(C)c1ccc2cc3ccc(N(C)C)c(/C=C(\C#N)C(=O)O)c3nc2c1` [acridine-based rotor], for which, in assay [4], the “Fluorescence change when p53 is added to DNA-bound rotor” value is listed as “decreased fluorescence signal; also recorded: fluorescence intensity dropped”. Moreover, the “Rotor:DNA ratio at saturation” value in assay [1] is reported as 0.5 × rotor.
With `C[n+]1c(/C=C2/C=CN(CCCN)c3ccccc32)sc2ccccc21` [thiazole-based rotor], the “Rotor:DNA ratio at saturation” value in assay [1] amounted to 15 × rotor.
For the molecule MPRFMDYWEGLNK [JP2], the Kd in assay [5] is 240 ± 53.8 nM.
Consider MPRFMDYWEGLSK [JP1], for which the Kd in assay [5] is 18.8 ± 5.03 nM.
For the molecule `C[n+]1ccc(/C=C/c2ccc3c(c2)c2cc(/C=C/c4cc[n+](C)cc4)ccc2n3-c2ccccc2)cc1` [carbazole-based (2-arm) rotor, 4,4′-((1E,1′E)-(9-phenyl-9H-carbazole-3,6-diyl)bis(ethene-2,1-diyl))bis(1-methylpyridin-1-ium)], in assay [4], the “Fluorescence change when p53 is added to DNA-bound rotor” value was “turn-off effect”. Besides, the “Rotor:DNA ratio at saturation” value in assay [1] is 15 × rotor.
With `N#C/C(=C\c1cc2c3c(c1)CCCN3CCC2)C(=O)OCCNC(=O)CCCCC1SCC2NC(=O)NC21` (centres unmarked) [biotin-rotor probe], the “Fluorescence increase on addition of streptavidin” value in assay [2] (40 μM conjugate, 50 μg streptavidin, 15 min) was determined as 2 fold.
